Where “and” joins values, the source holds several entries; their conditions need not be identical. Equal values may be shown once.
Experiments:
[1] = tested on: KRAS p.G12C tumors; conditions: preclinical KRAS p.G12C models; cited from earlier work
[2] = tested on: KRAS p.G12C tumors; test: Treatment of immune-competent mice; type: in vivo
[3] = tested on: KRAS p.G12C tumors; test: Preclinical KRAS p.G12C tumor models; type: in vivo
[4] = clinical; conditions: human, in vivo, po, 960 mg
[5] = tested on: patients with CRC; test: Phase 1 study, updated results (cutoff Jan. 8, 2020): adverse events in patients with CRC, N = 42; type: in vivo;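 note: values are patient incidence of adverse events, i.e. counts of patients experiencing each event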
Excerpt: (§1) A subject undergoing a therapy is monitored for adverse events (AE) during the course of the therapy. A treatment related AE is an AE that is related to the treatment drug. A treatment emergent AE is one that a subject develops undergoing the treatment that was not present prior to start of therapy. In some cases, the treatment emergent AE is not or suspected not to be related to the treatment itself AEs are characterized as one of five grades—grade 1 is a mild AE; grade 2 is a moderate AE; grade 3 is a severe AE; grade 4 is a life-threatening or disabling AE; and grade 5 is death related to AE.
(§2) The grading of AEs is based on the guidelines provided in the CTCAE version 5.0. AEs for DLT assessment: Hematological toxicity: Febrile neutropenia; Neutropenic infection; Grade 4 neutropenia; Grade ≥3 thrombocytopenia for >7 days; Grade 3 thrombocytopenia with grade ≥2 bleeding; Grade 4 thrombocytopenia; Grade 4 Anemia
(§3) Non-hematological toxicity Grade ≥4, vomiting or diarrhea; Grade 3 diarrhea or grade 3 vomiting lasting more than 3 days despite optimal medical support; Grade ≥3 nausea for 3 days or more despite optimal medical support; Any other grade ≥3 AE
All enrolled patients had received prior lines of systemic anticancer therapy.

[6] = tested on: patients with advanced solid tumors other than NSCLC and CRC
Excerpt: as §1, §2, §3

Q: With `C=CC(=O)N1CCN(c2ncnc3c(F)c(-c4c(O)cccc4F)c(Cl)cc23)CC1` [ARS-1620] as the molecule, how does the in vivo efficacy [1] read?
A: demonstrates in vivo efficacy

Q: For `C=CC(=O)N1CCN(c2nc(=O)n(-c3c(C)ccnc3C(C)C)c3nc(-c4c(O)cccc4F)c(F)cc23)[C@@H](C)C1` [Compound A, 4-((S)-4-acryloyl-2-methylpiperazin-1-yl)-6-fluoro-7-(2-fluoro-6-hydroxyphenyl)-1-(2-isopropyl-4-methylpyridin-3-yl)pyrido[2,3-d]pyrimidin-2(1H)-one], which “outcome in combination with immune checkpoint inhibition” value [2] is on record?
A: durable cures

Q: And the “effect in combination with chemotherapy and targeted agents” value [3]?
A: significantly improved the anti-tumor efficacy of chemotherapy and targeted agents

Q: And the AUC [4]?
A: 65.3 µg·h/mL

Q: What about the AUC(0-t) [4] of the same molecule?
A: 140 µg·h/mL

Q: What about the tolerability ([5]; CRC patients) of the same molecule?
A: well tolerated with mild treatment-related toxicities

Q: What about the “anemia, grade 3 treatment-related AE” value ([5]; CRC, 42 patients) of the same molecule?
A: 1 patient

Q: What about the “diarrhea, grade 3 treatment-related AE” value ([5]; CRC, 42 patients) of the same molecule?
A: 1 patient

Q: What about the “AEs leading to treatment discountinuation, Treatment-Emergent AEs (TEAEs)” value ([5]; CRC, N = 42) of the same molecule?
A: 2 (4.8) n (%)

Q: And the “AEs leading to treatment discountinuation, Treatment-related TEAEs” value ([5]; CRC, N = 42)?
A: 0 (0.0) n (%)

Q: What about the “Anemia (treatment-related TEAE of any grade)” value ([5]; CRC, N = 42) of the same molecule?
A: 2 (4.8) n (%)

Q: And the “Any grade, Treatment-Emergent AEs (TEAEs)” value ([5]; CRC, N = 42)?
A: 38 (90.5) n (%)

Q: What about the “Any grade, Treatment-related TEAEs” value ([5]; CRC, N = 42) of the same molecule?
A: 20 n (%) and 20 (47.6) n (%)

Q: And the “Blood creatine phosphokinase increase (treatment-related TEAE of any grade)” value ([5]; CRC, N = 42)?
A: 2 (4.8) n (%)

Q: And the “Diarrhea (treatment-related TEAE of any grade)” value ([5]; CRC, N = 42)?
A: 8 (19.0) n (%)

Q: What about the “Dose-limiting toxicities, Treatment-related TEAEs” value ([5]; CRC, N = 42) of the same molecule?
A: 0 (0.0) n (%)

Q: What about the “Fatal AEs, Treatment-Emergent AEs (TEAEs)” value ([5]; CRC, N = 42) of the same molecule?
A: 3 (7.1) n (%)

Q: What about the “Fatal AEs, Treatment-related TEAEs” value ([5]; CRC, N = 42) of the same molecule?
A: 0 (0.0) n (%)

Q: What about the “Fatigue (treatment-related TEAE of any grade)” value ([5]; CRC, N = 42) of the same molecule?
A: 4 (9.5) n (%)

Q: And the “Grade ≥2, Treatment-Emergent AEs (TEAEs)” value ([5]; CRC, N = 42)?
A: 29 (69.0) n (%)

Q: And the “Grade ≥2, Treatment-related TEAEs” value ([5]; CRC, N = 42)?
A: 9 (21.4) n (%)

Q: What about the “Grade ≥3, Treatment-Emergent AEs (TEAEs)” value ([5]; CRC, N = 42) of the same molecule?
A: 13 (31.0) n (%)

Q: And the “Grade ≥3, Treatment-related TEAEs” value ([5]; CRC, N = 42)?
A: 2 (4.8) n (%)

Q: What about the “Grade ≥4, Treatment-Emergent AEs (TEAEs)” value ([5]; CRC, N = 42) of the same molecule?
A: 3 (7.1) n (%)

Q: What about the “Grade ≥4, Treatment-related TEAEs” value ([5]; CRC, N = 42) of the same molecule?
A: 0 (0.0) n (%)

Q: What about the “Nausea (treatment-related TEAE of any grade)” value ([5]; CRC, N = 42) of the same molecule?
A: 2 (4.8) n (%)

Q: And the “Serious AEs, Treatment-Emergent AEs (TEAEs)” value ([5]; CRC, N = 42)?
A: 10 (23.8) n (%)

Q: What about the “Serious AEs, Treatment-related TEAEs” value ([5]; CRC, N = 42) of the same molecule?
A: 0 (0.0) n (%)

Q: And the “Vomiting (treatment-related TEAE of any grade)” value ([5]; CRC, N = 42)?
A: 2 (4.8) n (%)

Q: And the “toxicities associated with Compound A” value ([6]; other solid tumors)?
A: mild and manageable

Q: And the “AEs leading to treatment discontinuation, All Treatment-Emergent AEs (TEAEs)” value ([6]; other solid tumors, N = 25)?
A: 3 (12.0) n (%)

Q: What about the “Any grade, All Treatment-Emergent AEs (TEAEs)” value ([6]; other solid tumors, N = 25) of the same molecule?
A: 20 (80.0) n (%)

Q: What about the “Any grade, All Treatment-Related TEAEs” value ([6]; other solid tumors, N = 25) of the same molecule?
A: 9 (36.0) n (%)

Q: What about the “Dose-limiting toxicities, All Treatment-Related TEAEs” value ([6]; other solid tumors, N = 25) of the same molecule?
A: 0 (0.0) n (%)

Q: And the “Fatal AEs, All Treatment-Emergent AEs (TEAEs)” value ([6]; other solid tumors, N = 25)?
A: 4 (16.0) n (%)

Q: And the “Fatal AEs, All Treatment-Related TEAEs” value ([6]; other solid tumors, N = 25)?
A: 0 (0.0) n (%)

Q: And the “Grade ≥2, All Treatment-Emergent AEs (TEAEs)” value ([6]; other solid tumors, N = 25)?
A: 17 (68.0) n (%)

Q: And the “Grade ≥2, All Treatment-Related TEAEs” value ([6]; other solid tumors, N = 25)?
A: 4 (16.0) n (%)

Q: What about the “Grade ≥3, All Treatment-Emergent AEs (TEAEs)” value ([6]; other solid tumors, N = 25) of the same molecule?
A: 15 (60.0) n (%)

Q: And the “Grade ≥3, All Treatment-Related TEAEs” value ([6]; other solid tumors, N = 25)?
A: 2 (8.0) n (%)

Q: What about the “Grade ≥4, All Treatment-Emergent AEs (TEAEs)” value ([6]; other solid tumors, N = 25) of the same molecule?
A: 4 (16.0) n (%)

Q: What about the “Grade ≥4, All Treatment-Related TEAEs” value ([6]; other solid tumors, N = 25) of the same molecule?
A: 0 (0.0) n (%)

Q: What about the “Serious AEs, All Treatment-Emergent AEs (TEAEs)” value ([6]; other solid tumors, N = 25) of the same molecule?
A: 13 (52.0) n (%)

Q: What about the “Serious AEs, All Treatment-Related TEAEs” value ([6]; other solid tumors, N = 25) of the same molecule?
A: 1 (4.0) n (%)

Q: What about the “diarrhea, grade 3 treatment-related AE” value ([6]; out of 25 patients) of the same molecule?
A: 1 patients

Q: What about the “diarrhea, treatment-related TEAE” value ([6]; out of 25 patients) of the same molecule?
A: 2 patients

Q: And the “fatigue, treatment-related TEAE” value ([6]; out of 25 patients)?
A: 2 patients

Q: And the “pneumonia, grade 3 treatment-related AE” value ([6]; out of 25 patients)?
A: 1 patients
